Columns and labels:
[1] = target: WT human STING isoform (Homo sapiens (Human), UniProt Q86WV6, H232R); test: THP-1-Dual KI-hSTING-R232 reporter cell line assay; type: cell-based; settings: 24 h incubation, luminescence, normalized to ML RR-S2 CDA 40 μM; read-out: EC50 THP-1 Dual KI-hSTING-R232 cells
Experimental: (§1) THP-1 STING Lucia ISG cells (InvivoGen #thpl-isg) were cultured in RPMI-1640 containing 2 mM L-glutamine, 25 mM HEPES, 100 μg/mL Normocin (InvivoGen) and 10% heat-inactivated FBS. Cells were seeded at a density of 7×10^5 cells/mL, maintained at 37° C./5% CO2, and passaged every 3-4 days. Selection pressure was maintained by the addition of 100 μg/mL Zeocin every second passage.
(§2) Assay conditions: cells were harvested and resuspended at a concentration of 5×10^5 cells/mL in fresh growth media. Of this cell preparation 20 μL per well was dispensed into 384 well cell culture plates (Greiner, #781098X) and incubated at 37° C./5% CO2 for 2 hours.
(§3) Concentration Response Curves (commonly 11 doses) were prepared by 2.5 fold serial dilution starting from 10 mM compound stock solution in DMSO. Compound dilutions were transferred into the cell culture plates using a pintool (0.1 μL transfer), control wells were matched for DMSO. Positive control wells received ML RR-S2 CDA (Med Chem Express HY12885B) in 5 μL of media to a final concentration of 40 μM. All other wells received additional 5 μL of media only to equalize volume. The plates were incubated for 24 h at 37° C./5% CO2.
(§4) For the detection step, QUANTI-Luc (InvivoGen #rep-qlc1) was prepared according to manufacturer's instruction and 10 μL were added per well to the culture plates. Plates were shaken for ten seconds on an orbital shaker and left in the dark at room temperature for two minutes, before luminescence was read on a Perkin Elmer Envision plate reader.
(§5) Data analysis: Luminescence raw data was normalized % activity relative to the signal of the positive control wells and negative control wells which were not treated with compound. The following formula was used to calculate normalized % activity from raw signals: % activity=(sample−negative)/(positive−negative)
(§6) The THP-1 STING Lucia ISG cell EC50 provides an assessment of activity at the human HAQ isoform of STING. For assessing compound activity against the WT human STING isoform, an equivalent method was conducted where the cells used were THP-1-Dual KI-hSTING-R232 (InvivoGen #thpd-r232).

[2] = target: T1, human STING (HAQ) (Homo sapiens (Human), UniProt Q86WV6, G230A/H232R/R293Q); test: biochemical
[3] = target: human HAQ isoform of STING (Homo sapiens (Human), UniProt Q86WV6, G230A/H232R/R293Q/R71H); test: THP-1 STING Lucia ISG reporter cell line assay; type: cell-based; settings: 24 h incubation, luminescence, normalized to ML RR-S2 CDA 40 μM; read-out: EC50 THP-I STING Lucia ISG cells
Experimental: as §1, §2, §3, §4, §5, §6

[4] = target: T2, human STING (WT) (Homo sapiens (Human), UniProt Q86WV6, H232R); test: Differential scanning fluorimetry (DSF), huSTING (WT); type: binding; settings: compound 100 μM, 2 μM protein, Tm with ligand minus Tm of protein alone (1% DMSO)
Experimental: (§7) Data were analyzed using “Meltdown analysis” protocol described by Rosa (2015).

[5] = target: T1, human STING (HAQ); test: Differential scanning fluorimetry (DSF), huSTING (HAQ); type: binding; settings: compound 100 μM, 2 μM protein, Tm with ligand minus Tm of protein alone (1% DMSO)
Experimental: as §7

[6] = target: T2, human STING (WT); test: biochemical
[7] = target: T2, human STING (WT); test: Surface Plasmon Resonance (SPR), STING (WT); settings: read-out: SPR (WT) KD; biotinylated STING on streptavidin chip, 8° C.
[8] = target: T1, human STING (HAQ); test: Surface Plasmon Resonance (SPR), STING (HAQ); settings: read-out: SPR (HAQ) KD; biotinylated STING on streptavidin chip, 8° C.

Chain of human HAQ isoform of STING (Q86WV6 whole entry R71H/G230A/H232R/R293Q, canonical isoform): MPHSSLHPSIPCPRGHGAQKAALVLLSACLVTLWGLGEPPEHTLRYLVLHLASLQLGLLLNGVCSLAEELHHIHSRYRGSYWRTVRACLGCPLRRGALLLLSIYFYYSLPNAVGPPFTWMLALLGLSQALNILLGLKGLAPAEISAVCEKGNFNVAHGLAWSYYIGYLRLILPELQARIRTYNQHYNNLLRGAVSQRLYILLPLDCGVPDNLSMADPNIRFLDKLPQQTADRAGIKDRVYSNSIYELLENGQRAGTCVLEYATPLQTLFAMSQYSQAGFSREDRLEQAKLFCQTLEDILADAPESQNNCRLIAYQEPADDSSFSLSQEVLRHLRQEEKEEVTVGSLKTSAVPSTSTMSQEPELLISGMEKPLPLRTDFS
T1 sequence (Q86WV6 149-345 G230A/H232R/R293Q): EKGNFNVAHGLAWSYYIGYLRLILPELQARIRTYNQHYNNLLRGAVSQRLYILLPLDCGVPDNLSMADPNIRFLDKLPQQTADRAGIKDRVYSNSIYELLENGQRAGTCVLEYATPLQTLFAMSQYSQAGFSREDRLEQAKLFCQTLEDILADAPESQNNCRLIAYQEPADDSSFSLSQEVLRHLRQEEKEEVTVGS
Chain of WT human STING isoform (Q86WV6 whole entry H232R, canonical isoform): as the sequence (Q86WV6 whole entry R71H/G230A/H232R/R293Q, canonical isoform) above, with H71R, A230G, Q293R counted along it
T2 sequence (Q86WV6 149-345 H232R): as the sequence (Q86WV6 149-345 G230A/H232R/R293Q) above, with A82G, Q145R counted along it

| SMILES | EC50 [1] | Kd [2] | EC50 [3] | DSF huSTING (WT) ΔTm [4] | ΔTm at 100 µM [5] | Kd [6] | Kd [7] | ΔTm at 100 µM [4] | Kd [8] | DSF huSTING (HAQ) ΔTm [5] |
| --- | --- | --- | --- | --- | --- | --- | --- | --- | --- | --- |
| NC(=O)c1ccc2c(c1)nc(-c1c(C(=O)O)sc3cccc(Cl)c13)n2CCCn1c(-c2c(C(=O)O)sc3cccc(Cl)c23)nc2cc(C(N)=O)ccc21 (single isomer, unassigned) [Example 4.2, 3,3′-(Propane-1,3-diylbis(5-carbamoyl-1H-benzo[d]imidazole-1,2-diyl))bis(4-chlorobenzo[b]thiophene-2-carboxylic acid)] | 19 µM | 16.6 µM | > 40 µM | −0.76 °C | 4.56 °C | 23 µM |  |  |  |  |
| NC(=O)c1ccc2c(c1)nc(-c1c(C(=O)O)sc3cccc(Cl)c13)n2CCCCn1c(-c2c(C(=O)O)sc3cccc(Cl)c23)nc2cc(C(N)=O)ccc21 [Example 3, 3,3′-(Butane-1,4-diylbis(5-carbamoyl-1H-benzo[d]imidazole-1,2-diyl))bis(4-chlorobenzo[b]thiophene-2-carboxylic acid)] | > 40 µM |  | > 40 µM |  | -0.55 °C |  | 6.3 µM | -1.83 °C | 5.06 µM |  |
| NC(=O)c1ccc2c(c1)nc(-c1c(C(=O)O)sc3cccc(Br)c13)n2CCn1c(-c2c(C(=O)O)sc3cccc(Br)c23)nc2cc(C(N)=O)ccc21 (single isomer, unassigned) [Example 11.1, 3,3′-(Ethane-1,2-diylbis(5-carbamoyl-1H-benzo[d]imidazole-1,2-diyl))bis(4-bromobenzo[b]thiophene-2-carboxylic acid)] | 0.172 µM |  | 0.182 µM | 17.83 °C |  |  | 0.063 µM |  | 0.00164 µM | 31.05 °C |
| COc1cccc2sc(C(=O)O)c(-c3nc4cc(C(N)=O)ccc4n3CCn3c(-c4c(C(=O)O)sc5cccc(OC)c45)nc4cc(C(N)=O)ccc43)c12 (single isomer, unassigned) [Example 5.1, 3,3′-(Ethane-1,2-diylbis(5-carbamoyl-1H-benzo[d]imidazole-1,2-diyl))bis(4-methoxybenzo[b]thiophene-2-carboxylic acid)] | 13.6 µM |  | > 40 µM | 6.4 °C |  |  | 0.692 µM |  | 0.0209 µM | 23.59 °C |
| CCOC(=O)c1sc2cccc(Cl)c2c1-c1nc2cc(C(N)=O)ccc2n1CCn1c(-c2c(C(=O)OCC)sc3cccc(Cl)c23)nc2cc(C(N)=O)ccc21 [Example A1, Diethyl 3,3′-(ethane-1,2-diylbis(5-carbamoyl-1H-benzo[d]imidazole-1,2-diyl))bis(4-chlorobenzo[b]thiophene-2-carboxylate)] | 12 µM |  | 18.4 µM |  | 0.36 °C |  | 16 µM | 1.84 °C | 14.9 µM |  |

Reference: patent US12384801B2, “Benzothiophene, thienopyridine and thienopyrimidine derivatives for the modulation of sting” (CTXT PTY LTD, priority 2019, dated 2025)
